From ChEMBL document CHEMBL1123955, “Improved delivery through biological membranes. 32. Synthesis and biological activity of brain-targeted delivery systems for various estradiol derivatives” (J Med Chem, 1988)
“And” between values parts separate entries of the source, which are not always exact repeats. Equal values may be shown once.

Tests used:
[1] = Half life in whole rat blood; type: ADME
[2] = Half life in brain homogenate; type: ADME, tissue-based
[3] = Half life in liver homogenate; type: ADME, tissue-based
[4] = Partition coefficient (logP); type: physicochemical; settings: octanol/water
[5] = Rate constant in brain homogenate; type: ADME, tissue-based
[6] = Rate constant in liver homogenate; type: ADME, tissue-based; settings: tissue homogenate
Rattus norvegicus [7] = organism: Rattus norvegicus; test: Rate constant in whole rat blood; type: ADME
Rattus norvegicus [8] = test: Concentration in brain 3 hr after administration of compound 4d; type: functional, organism-based
Rattus norvegicus [9] = test: Concentration in brain 6 hr after administration of compound 4d; type: functional, organism-based
Rattus norvegicus [10] = test: Concentration in brain hr after administration of compound 4d; type: functional, organism-based
Rattus norvegicus [11] = test: Concentration in brain 24 hr after administration of compound 4d; type: functional, organism-based
Rattus norvegicus [12] = test: Concentration in blood 0.25 hr after administration of compound 4d; type: functional, organism-based
Rattus norvegicus [13] = test: Concentration in blood 1 hr after administration of compound 4d; type: functional, organism-based
Rattus norvegicus [14] = test: Concentration in brain 0.25 hr after administration of compound 4d; type: functional, organism-based

| Structure (SMILES) | half-life [1] [min] | half-life [2] [min] | half-life [3] [min] | logP [4] | k [5] [min⁻¹] | k [6] [min⁻¹] | k (Rattus norvegicus [7]) [min⁻¹] | Concentration (Rattus norvegicus [8]) [ng/g] | Concentration (Rattus norvegicus [9]) [ng/g] | Concentration (Rattus norvegicus [10]) | Concentration (Rattus norvegicus [11]) [ng/g] | Concentration (Rattus norvegicus [12]) [ng/g] | Concentration (Rattus norvegicus [13]) [ng/g] | Concentration (Rattus norvegicus [14]) [ng/g] |
| --- | --- | --- | --- | --- | --- | --- | --- | --- | --- | --- | --- | --- | --- | --- |
| C#C[C@]1(OC(=O)C2=CN(C)C=CC2)CC[C@H]2[C@@H]3CCc4cc(O)ccc4[C@H]3CC[C@@]21C | 49.9 | 12.4 | 24.5 | 4.53 | 0.0567 | 0.0227 | 0.0139 |  |  |  |  |  |  |  |
| CN1C=CCC(C(=O)O[C@H]2CC[C@H]3[C@@H]4CCc5cc(O)ccc5[C@H]4CC[C@]23C)=C1 | 39.6 | 12.9 | 30.5 | 4.5 | 0.0537 | 0.0283 | 0.0175 |  |  |  |  |  |  |  |
| C#C[C@]1(OC(=O)c2ccc[n+](C)c2)CC[C@H]2[C@@H]3CCc4cc(O)ccc4[C@H]3CC[C@@]21C |  |  |  |  |  |  |  | 7.35 | 7.07 | 7.16 ng/g and 7.35 ng/g | 7.79 | 0.822 | 0.552 | 7.16 |
